# In patent EP3041353B1, “COMPOSITIONS COMPRISING BACTERIOSTATIC AGENTS AND BRILLIANT BLUE G” (priority 2013, dated 2015):
# Columns and labels:
# Vibrio sp. Gal12 = test: Bacteriostatic effect of Octenidin with BBG: turbidity after 24 h incubation; type: cell-based; set-up: key: +: Bakterienwachstum nach 24 h Inkubation; -: kein Bakterienwachstum nach 24 h Inkubation
# Description: Zur Untersuchung des Einflusses von BBG auf die bakteriostatische Wirkung wurden Bakterien 24 h mit erfindungsgemäßen Zusammensetzungen, Benzalkoniumchlorid (BAK) und Octenidin (Oct) als Bakteriostatikum enthielten, inkubiert. Wenn sich die Inkubationsmischung trübte, wurde das als Bakterienwachstum interpretiert. Zum Vergleich wurde Brillantblau R (BBR) anstelle von BBG eingesetzt. Die Ergebnisse sind in den Tabellen 1-4 wiedergegeben. Tabelle 1: Einfluss von BBG und BBR auf die bakteriostatische Wirkung von BAK gegenüber Escherichia coli (E. coli), + = Bakterienwachstum nach 24 h Inkubation, - = kein Bakterienwachstum nach 24 h Inkubation, R = Brillantblau R (BBR), G = Brillantblau G (BBG).
# Gram-negative Bakterien (hier E. coli) sind widerstandsfähiger als Gram-positive Bakterien (hier Bacillus sp.) und wachsen konzentrationsabhängig. […] Tabelle 3: Einfluss von BBG auf die bakteriostatische Wirkung von Octenidin (Oct) gegenüber Gram-negativen Bakterien., + = Bakterienwachstum nach 24 h Inkubation, - = kein Bakterienwachstum nach 24 h Inkubation, BBG = Brillantblau G.
# P2X7-Rezeptor = target: T1, P2X7-Rezeptor (Rattus norvegicus, UniProt Q64663); details: Jiang et al. 2000; cited from earlier work
# T1 sequence (Q64663 1-595): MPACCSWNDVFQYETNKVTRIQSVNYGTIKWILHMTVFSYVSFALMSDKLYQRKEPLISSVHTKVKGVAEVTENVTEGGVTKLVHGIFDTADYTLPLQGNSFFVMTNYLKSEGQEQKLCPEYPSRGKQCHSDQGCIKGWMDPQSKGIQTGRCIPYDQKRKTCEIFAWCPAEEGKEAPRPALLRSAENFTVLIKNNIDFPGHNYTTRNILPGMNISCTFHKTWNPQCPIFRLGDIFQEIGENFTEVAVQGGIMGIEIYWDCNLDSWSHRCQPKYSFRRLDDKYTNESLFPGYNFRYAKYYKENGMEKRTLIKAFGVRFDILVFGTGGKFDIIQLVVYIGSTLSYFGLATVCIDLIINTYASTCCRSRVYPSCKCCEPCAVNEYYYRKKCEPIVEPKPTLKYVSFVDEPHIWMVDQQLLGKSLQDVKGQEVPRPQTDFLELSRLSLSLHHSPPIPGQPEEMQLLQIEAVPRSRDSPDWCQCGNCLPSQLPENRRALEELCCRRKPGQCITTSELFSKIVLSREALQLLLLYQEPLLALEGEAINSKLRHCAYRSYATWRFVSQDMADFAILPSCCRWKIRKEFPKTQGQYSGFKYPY
# HCE-Zellen = type: cell-based, human
# Description: Die Erfindung wird im Folgenden rein zu Veranschaulichungszwecken anhand der angehängten Figuren und von Ausführungsbeispielen näher erläutert. • Figur 1 Effekt von 0,025% BBG auf die Toxizität von unterschiedlichen Konzentrationen (in Gew.-%) von Benzalkoniumchlorid (BAK) auf HCE-Zellen (HCE = human corneal epithelium, Menschliche Hornhautepithelzellen) bei verschiedenen Einwirkdauern (5, 30, 60 min). Oben: BAK ohne BBG. Unten: BAK mit BBG. Inkubationsmedium: Phosphat-gepufferte Kochsalzlösung (PBS). • Figur 2 Effekt von BBG (in Gew.-%) in unterschiedlichen Konzentrationen auf die Toxizität von BAK bei 0,003% (oben) und 0,008% (unten). PBS = Phosphat-gepufferte Kochsalzlösung; BBS = balanced salt solution (ausgeglichene Salzlösung). • Figur 3 Effekt von BBG (0,025 Gew.-%) auf die Toxizität von Octenidindihydrochlorid (Oct) in unterschiedlichen Konzentrationen (in Gew.-%) nach 5 min Inkubation (oben) und 30 min Inkubation (unten). Octenidin alone = Octenidin allein (ohne BBG). • Figur 4 Effekt von BBG (0,025 %) auf die Toxizität von Cetylpyridiniumchlorid (CPC) in unterschiedlichen Konzentrationen (in Gew.-%) nach 5 min Inkubation (oben) und 30 min Inkubation (unten). CPC alone = Cetylpyridiniumchlorid allein (ohne BBG). • Figur 5 Effekt von BBG (0,025 %) auf die Toxizität von Chlorhexidin (CHex) in Form von Chlorhexidindigluconat in unterschiedlichen Konzentrationen (in Gew.-%) nach 5 min Inkubation (oben) und 30 min Inkubation (unten). Chlorhexidin alone = Chlorhexidin allein (ohne BBG)
# Figur 1 zeigt die Wirkung von BBG 0,025% Gew.-% auf die Toxizität von unterschiedlichen Konzentrationen (in Gew.-%) von Benzalkoniumchlorid (BAK) auf HCE-Zellen (HCE = human corneal epithelium, Menschliche Hornhautepithelzellen) bei verschiedenen Einwirkdauern (5, 30, 60 min).
# Figur 2 zeigt die Wirkung von BBG (in Gew.-%) in unterschiedlichen Konzentrationen und zwei unterschiedlichen Medien (PBS und BSS) auf die Toxizität von BAK bei 0,003% (oben) und 0,008% (unten) bei HCE-Zellen. Die Schutzwirkung von BBG bei niedrigeren BAK-Konzentrationen setzt schon bei 0,003% BBG ein. Bei höheren BAK-Konzentrationen sind 0,015% notwendig.
# Figur 3 zeigt die Wirkung von BBG (0,025 Gew.-%) auf die Toxizität von Octenidin (Oct) Form von Octenidindihydrochlorid in unterschiedlichen Konzentrationen (in Gew.-%) nach 5 min Inkubation (oben) und 30 min Inkubation (unten). Octenidin alone = Octenidin allein (ohne BBG). […] BBG (0,025 Gew.-%) kann diesen Effekt bei 5 min Inkubation (links) bis zu einer Oct-Konzentration von 0,01% (der höchsten getesteten Konzentration) verhindern. Bei 30 min Einwirkzeit (rechts) ist erst ab 0,009 Gew.-% Oct der Schutz nicht mehr maximal.
# Die Figuren 4 und 5 zeigen die Wirkung von BBG (0,025 Gew.-%) auf die Toxizität von Cetylpyridiniumchlorid (CPC, Fig. 4) und Chlorhexidin (CHex in Form von Chlorhexidindigluconat, Fig. 5) in unterschiedlichen Konzentrationen (in Gew.-%) nach 5 min Inkubation (jeweils oben) und 30 min Inkubation (jeweils unten).
structure (smiles),measurement,setting,value
"CCOc1ccc(Nc2ccc(C(=C3C=CC(=[N+](CC)Cc4cccc(S(=O)(=O)[O-])c4)C=C3C)c3ccc(N(CC)Cc4cccc(S(=O)(=O)O)c4)cc3C)cc2)cc1 [BBG, Brillantblau G]",Bakterienwachstum nach 24 h Inkubation,"Vibrio sp. Gal12; 0,007% BBG + Octenidin 0,01%",-
same,Bakterienwachstum nach 24 h Inkubation,"Vibrio sp. Gal12; 0,007% BBG + Octenidin 0,002%",+
same,Bakterienwachstum nach 24 h Inkubation,"Vibrio sp. Gal12; 0,007% BBG + Octenidin 0,003%",-
same,Bakterienwachstum nach 24 h Inkubation,"Vibrio sp. Gal12; 0,007% BBG + Octenidin 0,005%",-
same,Bakterienwachstum nach 24 h Inkubation,"Vibrio sp. Gal12; 0,007% BBG + Octenidin 0,007%",-
same,Bakterienwachstum nach 24 h Inkubation,"Vibrio sp. Gal12; 0,007% BBG + Octenidin 0,009%",-
same,Bakterienwachstum nach 24 h Inkubation,"Vibrio sp. Gal12; 0,007% BBG, Octenidin 0%",+
same,Bakterienwachstum nach 24 h Inkubation,"Vibrio sp. Gal12; 0,015% BBG + Octenidin 0,01%",-
same,Bakterienwachstum nach 24 h Inkubation,"Vibrio sp. Gal12; 0,015% BBG + Octenidin 0,002%",+
same,Bakterienwachstum nach 24 h Inkubation,"Vibrio sp. Gal12; 0,015% BBG + Octenidin 0,003%",+
same,Bakterienwachstum nach 24 h Inkubation,"Vibrio sp. Gal12; 0,015% BBG + Octenidin 0,005%",+
same,Bakterienwachstum nach 24 h Inkubation,"Vibrio sp. Gal12; 0,015% BBG + Octenidin 0,007%",-
same,Bakterienwachstum nach 24 h Inkubation,"Vibrio sp. Gal12; 0,015% BBG + Octenidin 0,009%",-
same,Bakterienwachstum nach 24 h Inkubation,"Vibrio sp. Gal12; 0,015% BBG, Octenidin 0%",+
same,Bakterienwachstum nach 24 h Inkubation,"Vibrio sp. Gal12; 0,030% BBG + Octenidin 0,01%",+
same,Bakterienwachstum nach 24 h Inkubation,"Vibrio sp. Gal12; 0,030% BBG + Octenidin 0,002%",+
same,Bakterienwachstum nach 24 h Inkubation,"Vibrio sp. Gal12; 0,030% BBG + Octenidin 0,003%",+
same,Bakterienwachstum nach 24 h Inkubation,"Vibrio sp. Gal12; 0,030% BBG + Octenidin 0,005%",+
same,Bakterienwachstum nach 24 h Inkubation,"Vibrio sp. Gal12; 0,030% BBG + Octenidin 0,007%",+
same,Bakterienwachstum nach 24 h Inkubation,"Vibrio sp. Gal12; 0,030% BBG + Octenidin 0,009%",+
same,Bakterienwachstum nach 24 h Inkubation,"Vibrio sp. Gal12; 0,030% BBG, Octenidin 0%",+
same,Hemmung des P2X7-Rezeptors,P2X7-Rezeptor,spezifisch nicht-kompetitiv hemmt
same,Überleben,HCE-Zellen,leichten Erniedrigung des Überlebens
same,Schutzwirkung (=erhöhtes Zellüberleben),"HCE-Zellen; BBG 0,025% with BAK, 60 min Einwirkzeit, PBS (Figur 1)",noch deutlich vorhanden
same,"CPC-Konzentration, bis zu der der Schutzeffekt gegeben ist","HCE-Zellen; BBG 0,025 Gew.-% with CPC, 5 min and also 30 min Einwirkzeit (Figur 4)","~0,02%"
same,Schutzeffekt,"HCE-Zellen; BBG 0,025 Gew.-% with Chlorhexidin (Chlorhexidindigluconat), 5 and 30 min, compared with the CPC result (Figur 5)",Ähnliches gilt
same,"Oct-Konzentration, bis zu der BBG den zellschädigenden Effekt verhindert","HCE-Zellen; BBG 0,025 Gew.-%, 5 min Inkubation, highest Oct concentration tested (Figur 3)","≤ 0,01%"
same,"Oct-Konzentration, ab der der Schutz nicht mehr maximal ist","HCE-Zellen; BBG 0,025 Gew.-%, 30 min Einwirkzeit (Figur 3)","≥ 0,009 Gew.-%"
same,Schutzwirkung (zelltoxische Wirkung der Bakteriostatika bei gleichzeitiger Gabe),HCE-Zellen; dye given together with the bacteriostatic agent,stark reduziert
same,"BBG-Konzentration, die für die Schutzwirkung notwendig ist","HCE-Zellen; höhere BAK-Konzentration (BAK 0,008%), PBS and BSS (Figur 2)","0,015%"
same,"BBG-Konzentration, bei der die Schutzwirkung einsetzt","HCE-Zellen; niedrigere BAK-Konzentration (BAK 0,003%), PBS and BSS (Figur 2)","0,003%"
